Reference: patent US8039644B2, “Hydrogenated benzo (C) thiophene derivatives as immunomodulators” (Actelion Pharmaceuticals Ltd., priority 2005, dated 2011)

Molecular target: recombinant human S1P1 receptor (Homo sapiens, UniProt P21453)
Test: GTPγS assay to determine EC50 values
Format: biochemical
Details: GTPγS binding, membrane preparations of CHO cells expressing recombinant human S1P1 receptor
Experimental: GTPγS Assay to Determine EC50 Values
GTPγS binding assays are performed in 96 well microtiter plates (Nunc, 442587) in a final volume of 200 μl, using membrane preparations of CHO cells expressing recombinant human S1P1 receptor. Assay conditions are 20 mM Hepes (Fluka, 54461), 100 mM NaCl (Fluka, 71378), 5 mM MgCl2 (Fluka, 63064), 0.1% BSA (Calbiochem, 126609), 1 μM GDP (Sigma, G-7127), 2.5% DMSO (Fluka, 41644), 50 pM ^35S-GTPγS (Amersham Biosciences, SJ1320). The pH is 7.4. Test compounds are dissolved and diluted in 100% DMSO and pre-incubated at room temperature for 30 min in 150 μl of the above assay buffer, in the absence of ^35S-GTPγS. After addition of 50 μl of ^35S-GTPγS, the assay is incubated for 1 h at rt. The assay is terminated by transfer of the reaction mixture to a Multiscreen plate (Millipore, MAHFC1H60) using a cell harvester from Packard Biosciences, and the plates are washed with ice-cold 10 mM Na2HPO4/NaH2PO4 (70%/30%), dried, sealed at the bottom and, after addition of 25 μl MicroScint20 (Packard Biosciences, order#6013621), sealed on the top. Membrane-bound ^35S-GTPγS is measured with a TopCount from Packard Biosciences.
EC50 is the concentration of agonist inducing 50% of the maximal specific ^35S-GTPγS binding. Specific binding is determined by subtracting non-specific binding from maximal binding. Maximal binding is the amount of cpm bound to the Multiscreen plate in the presence of 10 μM of S1P. Non-specific binding is the amount of binding in the absence of an agonist in the assay.
The EC50 values were determined according to the method described above.

recombinant human S1P1 receptor, sequence (P21453 whole entry): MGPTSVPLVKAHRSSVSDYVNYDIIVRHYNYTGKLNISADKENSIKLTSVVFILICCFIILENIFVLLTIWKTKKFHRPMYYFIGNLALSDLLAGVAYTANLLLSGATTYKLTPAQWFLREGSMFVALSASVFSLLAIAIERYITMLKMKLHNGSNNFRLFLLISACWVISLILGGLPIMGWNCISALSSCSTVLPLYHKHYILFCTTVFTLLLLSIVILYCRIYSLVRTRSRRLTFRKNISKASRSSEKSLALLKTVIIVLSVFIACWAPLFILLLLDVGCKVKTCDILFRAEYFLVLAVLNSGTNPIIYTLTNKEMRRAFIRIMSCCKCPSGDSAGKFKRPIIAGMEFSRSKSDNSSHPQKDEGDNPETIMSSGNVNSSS

EC50 [nM]	Compound
2.5	CCc1sc(C(=O)CCc2cc(C)c(OCCO)c(C)c2)c2c1CC(C)(C)CC2 [Example 66]
0.6	CCc1sc(C(=O)CCc2cc(C)c(OCC(O)CNCCC(=O)O)c(C)c2)c2c1CC(C)(C)CC2 (stereo not shown) [Example 80]
3.8	Cc1cc(-c2noc(-c3scc4c3CCC(C)(C)C4)n2)cc(C)c1OCC(O)CNC(=O)CO (stereo not shown) [Example 129]
5.1	COc1cc(CCC(=O)c2sc(C)c3c2CCC(C)(C)C3)cc(Cl)c1OCC(O)CNC(=O)CO (stereo not shown) [Example 149]
1.7	CCc1sc(C(=O)CCc2cc(C)c(OCC(O)CN)c(C)c2)c2c1CC(C)(C)CC2 (stereo not shown) [Example 271]
0.8	CCc1sc(C(=O)CCc2cc(C)c(OCC(O)CNC(=O)CN)c(Cl)c2)c2c1CC(C)(C)CC2 (stereo not shown) [Example 312]
1.8	CCc1cc(CCC(=O)c2sc(CC)c3c2CCC(C)(C)C3)cc(C)c1CCCN [Example 339, 3-[4-(3-Amino-propyl)-3-ethyl-5-methyl-phenyl]-1-(3-ethyl-5,5-dimethyl-4,5,6,7-tetrahydro-benzo[c]thiophen-1-yl)-propan-1-one]
3.4	CCc1cc(CCC(=O)c2sc(CC)c3c2CCC(C)(C)C3)cc(C)c1CCCNC(=O)CCNC [Example 351]
7.6	CCc1sc(C(=O)/C=C/c2cc(C)c(O)c(C)c2)c2c1CC(CC)(CC)CC2 [Example 423, 3-(4-Hydroxy-3,5-dimethyl-phenyl)-1-(3,5,5-triethyl-4,5,6,7-tetrahydro-benzo[c]thiophen-1-yl)-propenone]
9.7	Cc1cc(C)cc(NCC(=O)c2sc(C(F)(F)F)c3c2CCC(C)(C)C3)c1 [Example 517]

More lines, now with the values behind:

Compound	EC50 [nM]
Cc1cc(CCC(=O)c2sc(C)c3c2CCC(C)(C)C3)cc(C)c1OC[C@@H](O)CO [Example 27]	2.4
Cc1cc(CCC(=O)c2sc(C)c3c2CCC(C)(C)C3)cc(C)c1OCC(O)CNCCC(=O)O (stereo not shown) [Example 41]	2.8
COc1cc(CCC(=O)c2sc(C)c3c2CCC(C)(C)C3)cc(Cl)c1OCC(O)CNCCC(=O)O (stereo not shown) [Example 62]	5.9
CCc1sc(C(=O)CCc2cc(C)c(OCC(O)COC)c(C)c2)c2c1CC(C)(C)CC2 (stereo not shown) [Example 71]	5.9
CCc1sc(C(=O)CCc2cc(C)c(OCC(O)CNC(CO)CO)c(C)c2)c2c1CC(C)(C)CC2 (stereo not shown) [Example 77]	1.8
CCc1sc(C(=O)CCc2cc(C)c(OCC(O)CNCCN)c(C)c2)c2c1CC(C)(C)CC2 (stereo not shown) [Example 79]	3.7
CCc1sc(C(=O)CCc2cc(C)c(OCCNC(C)C)c(C)c2)c2c1CC(C)(C)CC2 [Example 114]	4.1
CCc1sc(C(=O)CCc2ccc(OCCO)cc2OC)c2c1CC(C)(C)CC2 [Example 210]	1.1
CCc1sc(C(=O)CCc2ccc(OCCNS(C)(=O)=O)cc2OC)c2c1CC(C)(C)CC2 [Example 230]	2.9
CCc1sc(C(=O)CCc2cc(Cl)c(OCCNC(=O)CNC)c(OC)c2)c2c1CC(C)(C)CC2 [Example 247]	3.1
CCc1sc(C(=O)CCc2ccc(OCCCNS(C)(=O)=O)cc2OC)c2c1CC(C)(C)CC2 [Example 269]	1.8
CCc1sc(C(=O)CCc2cc(C)c(OCC(O)CN3CC(C(=O)O)C3)c(C)c2)c2c1CC(C)(C)CC2 (stereo not shown) [Example 296]	1
CCc1sc(C(=O)CCc2ccc(S(=O)(=O)NCCN)cc2)c2c1CC(C)(C)CC2 [Example 356, N-(2-amino-ethyl)-4-[3-(3-ethyl-5,5-dimethyl-4,5,6,7-tetrahydro-benzo[c]thiophen-1-yl)-3-oxo-propyl]-benzenesulfonamide]	8
CCc1sc(C(=O)CNc2ccccc2OC)c2c1CC(C)(C)CC2 [Example 378]	6.1
CCCc1sc(C(=O)CCc2cc(C)c(OC[C@H](O)CO)c(C)c2)c2c1CC(C)(C)CC2 [Example 414]	4.2
Cc1cc(-c2noc(-c3scc4c3CCC3(CC3)C4)n2)cc(C)c1OCC(O)CNC(=O)CO (stereo not shown) [Example 457]	6.2
CCc1cc(CCC(=O)c2sc(C(F)(F)F)c3c2CCC(C)(C)C3)cc(C)c1OCC(O)CNC(=O)CCO (stereo not shown) [Example 489]	2.9
Cc1cc(CCC(=O)c2sc(C(F)(F)F)c3c2CCC(C)(C)C3)cc(C)c1NCC(O)CO (stereo not shown) [Example 501, 3-[4-(2,3-Dihydroxy-propylamino)-3,5-dimethyl-phenyl]-1-(5,5-dimethyl-3-trifluoromethyl-4,5,6,7-tetrahydro-benzo[c]thiophen-1-yl)-propan-1-one]	2.6
